Values of other authors in patent publication US9662315B2, “Ameliorating drug-induced elevations in blood pressure by adjunctive use of antihypertensive drugs” (Kitov Pharmaceuticals Ltd., priority 2008, dated 2017).

Settings: per FDA approved drug labeling; rofecoxib compared with placebo control patients

SMILES	high blood pressure / hypertension rate in treated patients
Cc1ccc(-c2cc(C(F)(F)F)nn2-c2ccc(S(N)(=O)=O)cc2)cc1 [celecoxib]	increased rate of hypertension
CS(=O)(=O)c1ccc(C2=C(c3ccccc3)C(=O)OC2)cc1 [rofecoxib]	occurring more frequently
